# Results reported in paper PMC9964319, “Half-Sandwich Rhodium Complexes with Releasable N-Donor Monodentate Ligands: Solution Chemical Properties and the Possibility for Acidosis Activation” (Pharmaceutics, 2023).
# Like-named read-outs stand apart in the source and are kept apart here.
# Legend:
# Assay type in all cases: cell-based
# [1] = system: Colo205 human colon adenocarcinoma cell line (doxorubicin-sensitive); test: MTT assay, cytotoxicity at pH 6 and 7
# Experimental: (§1) All cell culture reagents were obtained from Sigma-Aldrich (Merck KGaA, Darmstadt, Germany) and plasticware from Sarstedt (Nümbrecht, Germany). Human colonic adenocarcinoma cell lines Colo205 (catalog number: ATCC-CCL-222) and its doxorubicin-resistant counterpart Colo320 (catalog number: ATCC-CCL-220.1) were purchased from LGC Promochem (Teddington, UK). The cells were cultured in RPMI 1640 medium supplemented with 10% heat-inactivated fetal bovine serum, 2 mM L-glutamine, 1 mM sodium pyruvate, and 100 mM HEPES buffer, adjusting the pH to 6.0 or 7.0. The cells were incubated at 37 °C in a 5% CO2–95% air atmosphere. The semiadherent human colon cancer cells were detached with Trypsin-Versene solution for 5 min at 37 °C.
# (§2) The solutions were freshly prepared prior to measurements (see Section 2.1). […] Firstly, these samples were diluted in complete culture medium; then, two-fold serial dilutions of the compounds were prepared in 100 μL of RPMI 1640, horizontally. The semiadherent colonic adenocarcinoma cells were treated with Trypsin-Versene solution. They were adjusted to a density of 1 × 10^4 cells in 100 μL of RPMI 1640 medium and were added to each well, with the exception of the medium control wells. The final volume of the wells containing compounds and cells was 200 μL. Samples were triplicated. The pH of the medium was adjusted to 6.0 or 7.0.
# (§3) The culture plates were incubated at 37 °C for 72 h; at the end of the incubation period, 20 μL of MTT solution (from a stock solution of 5 mg/mL) was added to each well. After incubation at 37 °C for 4 h, 100 μL of SDS solution (10% in 0.01 M HCI) was added to each well, and the plates were further incubated at 37 °C overnight. Cell growth was determined by measuring the optical density (OD) at 540/630 nm with a Multiscan EX ELISA reader (Thermo Labsystems, Cheshire, WA, USA). […] Curves were fitted using GraphPad Prism software (2022, version 9.4.1, Graphpad Software (LLC) d.b.a Dotmatics, San Diego, CA, USA) using the sigmoidal dose–response model (comparing variable and fixed slopes).
# (§4) The pH-dependent solution speciation of the selected mixed-ligand complexes is an important feature in the hypothesized mechanism of action, and the modeling of acidosis is necessary for the in vitro anticancer assays. In order to find out the cytotoxicity difference based on the pH of the medium, cytotoxic activity was determined at pH 6 and 7 by MTT assay in two human colon adenocarcinoma cell lines (doxorubicin-sensitive Colo205 and doxorubicin-resistant Colo320). […] The mixed-ligand complexes were prepared prior to the measurements, as was already described in Section 2.1. With this method, the effect of the different counter ions could be avoided, and a more adequate comparison of the mixed-ligand complexes could be conducted.
# [2] = system: Colo320 human colon adenocarcinoma cell line (doxorubicin-resistant); test: MTT assay, cytotoxicity at pH 6 and 7
# Experimental: as §1, §2, §3, §4
# [3] = system: E. coli 32313 (resistant); test: Antibacterial assay, MIC in 96-well plates at different pH
# Source text: (§5) The antibacterial effect was studied in two Gram-positive and in two Gram-negative strains. The Gram-positive S. aureus ATCC 25923 (ATCC, Manassas, VA, USA) is a methicillin-susceptible reference bacterial strain, while S. aureus 272123 is a clinical isolate and resistant to methicillin and ofloxacin (MRSA), which was given by Prof. Dr. Leonard Amaral (Institute of Hygiene and Tropical Medicine, Lisbon, Portugal). The Gram-negative strains were E. coli ATCC 25922 (ATCC, Manassas, VA, USA), which is sensitive to antibiotics, and E. coli 32313 (provided by the Institute of Clinical Microbiology, University of Szeged, Hungary), which is resistant to different antibiotics (trimethoprim/sulfamethoxazole, gentamicin, ciprofloxacin, and norfloxacin).
# (§6) The minimum inhibitory concentrations (MICs) of the compounds were determined in 96-well plates based on the Clinical and Laboratory Standard Institute guidelines. The compounds were diluted in 100 μL of Mueller Hinton broth. Then, an overnight bacterial culture diluted 10,000 times in 100 μL of medium was added to each well, with the exception of the medium control wells. For each strain and each tested compound, four pH values were set (5, 6, 7, and 8). Each sample was triplicated.
# [4] = system: E. coli ATCC 25922 (sensitive); test: as above
# Source text: as §5, §6
# [5] = system: S. aureus 272123 (MRSA); test: as above
# Source text: as §5, §6
# [6] = system: S. aureus ATCC 25923 (methicillin-susceptible); test: as above
# Source text: as §5, §6
# [7] = Colo205, pH 6, 72 h incubation, read-out: IC50
# [8] = Colo205, pH 7, 72 h incubation, read-out: IC50
# [9] = Colo320, pH 6, 72 h incubation, read-out: IC50
# [10] = Colo320, pH 7, 72 h incubation, read-out: IC50
# [11] = E. coli resistant, pH 5, after one day, read-out: MIC
# [12] = E. coli resistant, pH 6, after one day, read-out: MIC
# [13] = E. coli resistant, pH 7, after one day, read-out: MIC
# [14] = E. coli resistant, pH 8, after one day, read-out: MIC
# [15] = E. coli sensitive, pH 5, after one day, read-out: MIC
# [16] = E. coli sensitive, pH 6, after one day, read-out: MIC
# [17] = E. coli sensitive, pH 7, after one day, read-out: MIC
# [18] = E. coli sensitive, pH 8, after one day, read-out: MIC
# [19] = pH 5, after one day, read-out: MIC
# [20] = pH 6, after one day, read-out: MIC
# [21] = pH 7, after one day, read-out: MIC
# [22] = pH 8, after one day, read-out: MIC
# [23] = S. aureus sensitive, pH 7, after one day, read-out: MIC
# [24] = S. aureus sensitive, pH 8, after one day, read-out: MIC
compound,measurement,setting,value
CC1=C(C)C(C)C(C)=C1C.[Rh+3].c1ccncc1.c1cnc2c(c1)ccc1cccnc12 [[RhCp*(phen)(Py)]^2+],IC50,[1]; [7],> 100 µM
same,IC50,[1]; [8],> 100 µM
same,IC50,[2]; [9],83.6 ± 4.1 µM
same,IC50,[2]; [10],> 100 µM
"c1ccncc1 [Py, pyridine, reference compound]",IC50,"[1]; Homo sapiens, COLO 205, 72 h, pH 6",> 100 µM
same,IC50,"[1]; Homo sapiens, COLO 205, 72 h, pH 7",> 100 µM
same,IC50,"[2]; Homo sapiens, COLO 320, 72 h, pH 6",> 100 µM
same,IC50,"[2]; Homo sapiens, COLO 320, 72 h, pH 7",> 100 µM
same,MIC,"[3]; Escherichia coli, 24 h, pH 5",> 100 µM
same,MIC,"[3]; Escherichia coli, 24 h, pH 6",> 100 µM
same,MIC,"[3]; Escherichia coli, 24 h, pH 7",> 100 µM
same,MIC,"[3]; Escherichia coli, 24 h, pH 8",> 100 µM
same,MIC,"[3]; Escherichia coli, read-out: MIC (no antibacterial effect)",> 100 µM
same,MIC,"[4]; Escherichia coli, ATCC25922, 24 h, pH 5",> 100 µM
same,MIC,"[4]; Escherichia coli, ATCC25922, 24 h, pH 6",> 100 µM
same,MIC,"[4]; Escherichia coli, ATCC25922, 24 h, pH 7",> 100 µM
same,MIC,"[4]; Escherichia coli, ATCC25922, 24 h, pH 8",> 100 µM
same,MIC,"[4]; Escherichia coli, ATCC25922, read-out: MIC (no antibacterial effect)",> 100 µM
same,MIC,"[5]; Staphylococcus aureus, 24 h, pH 5",> 100 µM
same,MIC,"[5]; Staphylococcus aureus, 24 h, pH 6",> 100 µM
same,MIC,"[5]; Staphylococcus aureus, 24 h, pH 7",> 100 µM
same,MIC,"[5]; Staphylococcus aureus, 24 h, pH 8",> 100 µM
same,MIC,"[5]; Staphylococcus aureus, read-out: MIC (no antibacterial effect)",> 100 µM
same,MIC,"[6]; Staphylococcus aureus, ATCC25923, 24 h, pH 7",> 100 µM
same,MIC,"[6]; Staphylococcus aureus, ATCC25923, 24 h, pH 8",> 100 µM
same,MIC,"[6]; Staphylococcus aureus, ATCC25923, read-out: MIC (no antibacterial effect)",> 100 µM
CC1=C(C)C(C)C(C)=C1C.Cn1ccnc1.[Rh+3].c1cnc2c(c1)ccc1cccnc12 [[RhCp*(phen)(mim)]^2+],IC50,[1]; [7],> 100 µM
same,IC50,[1]; [8],> 100 µM
same,IC50,[2]; [9],71.7 ± 3.3 µM
same,IC50,[2]; [10],> 100 µM
Cc1c(C)c(C)[c-](C)c1C.[Cl-].[Cl-].[Rh+3].c1cnc2c(c1)ccc1cccnc12 [[RhCp*(phen)Cl]Cl],IC50,[1]; [7],> 100 µM
same,IC50,[1]; [8],> 100 µM
same,IC50,[2]; [9],> 100 µM
same,IC50,[2]; [10],> 100 µM
same,MIC,[3]; [11],> 100 µM
same,MIC,[3]; [12],>100 µM
same,MIC,[3]; [13],>100 µM
same,MIC,[3]; [14],> 100 µM
same,MIC,"[3]; any of the bacterial strains, resistant E. coli, read-out: MIC (no antibacterial effect)",> 100 µM
same,MIC,[4]; [15],> 100 µM
same,MIC,[4]; [16],>100 µM
same,MIC,[4]; [17],>100 µM
same,MIC,[4]; [18],> 100 µM
same,MIC,"[4]; any of the bacterial strains, E. coli, read-out: MIC (no antibacterial effect)",> 100 µM
same,MIC,"[5]; any of the bacterial strains, read-out: MIC (no antibacterial effect)",> 100 µM
same,MIC,[5]; [19],> 100 µM
same,MIC,[5]; [20],>100 µM
same,MIC,[5]; [21],>100 µM
same,MIC,[5]; [22],> 100 µM
same,MIC,[6]; [23],>100 µM
same,MIC,[6]; [24],> 100 µM
same,MIC,"[6]; any of the bacterial strains, S. aureus, read-out: MIC (no antibacterial effect)",> 100 µM
Cc1c(C)c(C)[c-](C)c1C.[Cl][Rh+][O]c1cccc2cccnc12 [[RhCp*(8HQH−1)Cl]],IC50,[1]; [7],8.1 ± 0.5 µM
same,IC50,[1]; [8],8.8 ± 0.4 µM
same,IC50,[2]; [9],6.1 ± 0.2 µM
same,IC50,[2]; [10],3.3 ± 0.1 µM
same,MIC,[3]; [11],> 100 µM
same,MIC,[3]; [12],>100 µM
same,MIC,[3]; [13],>100 µM
same,MIC,[3]; [14],> 100 µM
same,MIC,[4]; [15],> 100 µM
same,MIC,[4]; [16],>100 µM
same,MIC,[4]; [17],>100 µM
same,MIC,[4]; [18],> 100 µM
same,MIC,[5]; [19],50 µM
same,MIC,[5]; [20],12.5 µM
same,MIC,[5]; [21],12.5 µM
same,MIC,[5]; [22],12.5 µM
same,MIC,[6]; [23],12.5 µM
same,MIC,[6]; [24],12.5 µM
